Results taken from ChEMBL document CHEMBL2396568, “An insight into synthetic Schiff bases revealing antiproliferative activities in vitro” (Bioorg Med Chem, 2013).

How the values were obtained:
KB [1] = assay: Antiproliferative activity against hydroxyurea-resistant human KB cells after 24 hrs by MTS assay; assay type: functional, cell-based
KB [2] = assay: Antiproliferative activity against wild-type human KB cells after 24 hrs by MTS assay; assay type: functional, cell-based
[3] = Antiproliferative activity against human T-lymphoblastic leukemia cells by MTT assay; assay type: functional; details: Leukemia cell, read-out: CD50 (the source's name)
Artemia salina = assay: Toxicity in brine shrimp; assay type: functional; details: read-out: ED50 (the source's name)
KB [4] = assay: Antiproliferative activity against human KB cells after 72 hrs by neutral red uptake assay; assay type: functional, cell-based
MCF7 [5] = assay: Antiproliferative activity against wild-type human MCF7 cells after 72 hrs by neutral red uptake assay; assay type: functional, cell-based
MCF7 [6] = assay: Antiproliferative activity against doxorubicin-resistant human MCF7 cells after 72 hrs by neutral red uptake assay; assay type: functional, cell-based
K562 = assay: Antiproliferative activity against human K562 cells by MTT assay; assay type: functional, cell-based
HeLa [7] = assay: Antiproliferative activity against human HeLa cells after 24 hrs by MTT assay; assay type: functional, cell-based
A549 [8] = assay: Antiproliferative activity against human A549 cells after 24 hrs by MTT assay; assay type: functional, cell-based; details: A549, 24 h
HeLa [9] = assay: Antiproliferative activity against human HeLa cells after 48 hrs by MTT assay; assay type: functional, cell-based
A549 [10] = assay: Antiproliferative activity against human A549 cells after 48 hrs by MTT assay; assay type: functional, cell-based; details: A549, 48 h
PC-3 = assay: Antiproliferative activity against human PC3 cells after 24 hrs by MTT assay; assay type: functional, cell-based; details: PC-3, 24 h
MCF7 [11] = assay: Antiproliferative activity against human MCF7 cells after 24 hrs by MTT assay; assay type: functional, cell-based; details: MCF7, 24 h
A2780 [12] = assay: Antiproliferative activity against human A2780 cells after 72 hrs by MTT assay; assay type: functional, cell-based; details: A2780, 72 h
A2780 [13] = assay: Antiproliferative activity against cisplatin-resistant human A2780 cells after 72 hrs by MTT assay; assay type: functional, cell-based; details: A2780, 72 h
[14] = Antiproliferative activity against human SW707 cells after 72 hrs by sulforhodamine B assay; assay type: functional; details: SW707, 72 h, read-out: ID50 (the source's name)
[15] = Antiproliferative activity against human HCV29T cells after 72 hrs by sulforhodamine B assay; assay type: functional; details: read-out: ID50 (the source's name)
WIL2-NS = assay: Antiproliferative activity against human WIL2-NS cells after 96 hrs by MTT assay; assay type: functional, cell-based
CCRF-SB = assay: Antiproliferative activity against human CCRF-SB cells after 96 hrs by MTT assay; assay type: functional, cell-based
MT4 = assay: Antiproliferative activity against human MT4 cells after 96 hrs by MTT assay; assay type: functional, cell-based; details: MT4, 96 h
CCRF-CEM = assay: Antiproliferative activity against human CCRF-CEM cells after 96 hrs by MTT assay; assay type: functional, cell-based
HEp-2 = assay: Antiproliferative activity against human Hep2 cells after 48 hrs by sulforhodamine B assay; assay type: functional, cell-based; details: HEp-2, 48 h
HCT-116 [16] = assay: Selectivity ratio of IC50 for human HCT116 cells to IC50 for human Hep2 cells; assay type: functional
HCT-116 [17] = assay: Antiproliferative activity against human HCT116 cells after 48 hrs by sulforhodamine B assay; assay type: functional, cell-based; details: HCT-116, 48 h

O=C(NO)N/N=C/c1ccc(O)c(O)c1O
IC50 (KB [1]): 15.3 µM | IC50 (KB [2]): 37.5 µM

O=C(NO)N/N=C/c1ccc([N+](=O)[O-])s1
IC50 (KB [1]): 28 µM | IC50 (KB [2]): 27.2 µM

C(=N\Cc1ccco1)/c1c2ccccc2cc2ccccc12
CC50 [3]: 67.8 µM

CCC(C)C(/N=C1/c2c(O)cccc2Cc2cc(CO)cc(O)c21)C(=O)O (configuration not stated)
EC50 (Artemia salina): 246 µM

CC(O)C(/N=C1/c2c(O)cccc2Cc2cc(CO)cc(O)c21)C(=O)O (configuration not stated)
EC50 (Artemia salina): 339 µM

C/N=C/c1c(O)c(O)c(C(C)C)c2c1C(=O)C(C1=C(C)C(=O)c3c(c(/C=N/C)c(O)c(O)c3C(C)C)C1=O)=C(C)C2=O
IC50 (KB [4]; Homo sapiens, KB, 72 h): 0.5 µM | IC50 (MCF7 [5]; Homo sapiens, MCF7, 72 h): 0.4 µM | IC50 (MCF7 [6]; Homo sapiens, MCF7, 72 h): 0.1 µM

S=C(N/N=C(\c1ccccc1)c1ccccn1)SCc1ccccc1
IC50 (K562): 37 µM

O=C(O)C/N=C1/c2c(O)cccc2C([C@@H]2O[C@H](CO)[C@@H](O)[C@H](O)[C@H]2O)c2cc(CO)cc(O)c21 (some centres not stated)
EC50 (Artemia salina): 408 µM

CC(/N=C1/c2c(O)cccc2C([C@@H]2O[C@H](CO)[C@@H](O)[C@H](O)[C@H]2O)c2cc(CO)cc(O)c21)C(=O)O (some centres not stated)
EC50 (Artemia salina): 130 µM

O=C(O)C(Cc1ccccc1)/N=C1/c2c(O)cccc2C([C@@H]2O[C@H](CO)[C@@H](O)[C@H](O)[C@H]2O)c2cc(CO)cc(O)c21 (some centres not stated)
EC50 (Artemia salina): 312 µM

CC(C)CC(/N=C1/c2c(O)cccc2C([C@@H]2O[C@H](CO)[C@@H](O)[C@H](O)[C@H]2O)c2cc(CO)cc(O)c21)C(=O)O (some centres not stated)
EC50 (Artemia salina): 32 µM

CCC(C)C(/N=C1/c2c(O)cccc2C([C@@H]2O[C@H](CO)[C@@H](O)[C@H](O)[C@H]2O)c2cc(CO)cc(O)c21)C(=O)O (some centres not stated)
EC50 (Artemia salina): 35.2 µM

Cc1cc(O)c2c(c1)C([C@@H]1O[C@H](CO)[C@@H](O)[C@H](O)[C@H]1O)c1cccc(O)c1/C2=N/C(CS)C(=O)O (some centres not stated)
EC50 (Artemia salina): 10.2 µM

CSCCC(/N=C1/c2c(O)cccc2C([C@@H]2O[C@H](CO)[C@@H](O)[C@H](O)[C@H]2O)c2cc(CO)cc(O)c21)C(=O)O (some centres not stated)
EC50 (Artemia salina): 404 µM

CC(C)C(/N=C1/c2c(O)cccc2C([C@@H]2O[C@H](CO)[C@@H](O)[C@H](O)[C@H]2O)c2cc(CO)cc(O)c21)C(=O)O (some centres not stated)
EC50 (Artemia salina): 19.1 µM

CC(O)C(/N=C1/c2c(O)cccc2C([C@@H]2O[C@H](CO)[C@@H](O)[C@H](O)[C@H]2O)c2cc(CO)cc(O)c21)C(=O)O (some centres not stated)
EC50 (Artemia salina): 27.6 µM

O=C(O)C/N=C1/c2c(O)cccc2Cc2cc(CO)cc(O)c21
EC50 (Artemia salina): 1030 µM

CC(/N=C1/c2c(O)cccc2Cc2cc(CO)cc(O)c21)C(=O)O (configuration not stated)
EC50 (Artemia salina): 339 µM

O=C(O)C(Cc1ccccc1)/N=C1/c2c(O)cccc2Cc2cc(CO)cc(O)c21 (configuration not stated)
EC50 (Artemia salina): 335 µM

CC(C)CC(/N=C1/c2c(O)cccc2Cc2cc(CO)cc(O)c21)C(=O)O (configuration not stated)
EC50 (Artemia salina): 72.2 µM

Cc1cc(O)c2c(c1)Cc1cccc(O)c1/C2=N/C(CS)C(=O)O (configuration not stated)
EC50 (Artemia salina): 423 µM

CSCCC(/N=C1/c2c(O)cccc2Cc2cc(CO)cc(O)c21)C(=O)O (configuration not stated)
EC50 (Artemia salina): 836 µM

CC(C)C(/N=C1/c2c(O)cccc2Cc2cc(CO)cc(O)c21)C(=O)O (configuration not stated)
EC50 (Artemia salina): 145 µM

Clc1ccc(/C=N/c2ccccc2)c(Cl)c1
IC50 (HeLa [7]): 1.3 µM | IC50 (A549 [8]): 1.4 µM | IC50 (HeLa [9]): 0.5 µM | IC50 (A549 [10]): 0.8 µM

Cc1ccc(/C=N/c2ccccc2)c(C)c1
IC50 (HeLa [7]): 115 µM | IC50 (A549 [8]): 144 µM | IC50 (HeLa [9]): 33 µM | IC50 (A549 [10]): 88.4 µM

C(=N\c1ccccc1)/c1ccc2c(c1)OCO2
IC50 (HeLa [7]): 42.2 µM | IC50 (A549 [8]): 207 µM | IC50 (HeLa [9]): 24.9 µM | IC50 (A549 [10]): 177 µM

Oc1ccccc1/C=N\CCn1cccn1
IC50 (PC-3): 522 µM | IC50 (MCF7 [11]): 715 µM

Oc1c(Cl)cc(Cl)cc1/C=N\CCn1cccn1
IC50 (A2780 [12]): 27 µM | IC50 (PC-3): 39 µM | IC50 (MCF7 [11]): 32 µM | IC50 (A2780 [13]): 26 µM

Oc1c(I)cc(I)cc1/C=N\CCn1cccn1
IC50 (A2780 [12]): 20 µM | IC50 (PC-3): 32 µM | IC50 (MCF7 [11]): 34 µM | IC50 (A2780 [13]): 25 µM

COc1ccc(/C=N/c2nc3ccccc3[nH]2)cc1
IC50 [14]: 183 µM | IC50 [15]: 179 µM

COc1ccc(/C=N/c2nc3ccccc3[nH]2)cc1OC
IC50 [14]: 154 µM | IC50 [15]: 106 µM

COc1cc(/C=N/c2nc3ccccc3[nH]2)cc(OC)c1OC
IC50 [14]: 50.4 µM | IC50 [15]: 52.4 µM

Brc1ccccc1/C=N/c1nc2ccccc2[nH]1
IC50 [14]: 26.3 µM | IC50 [15]: 35.3 µM

Brc1ccc(/C=N/c2nc3ccccc3[nH]2)cc1
IC50 [14]: 33.3 µM | IC50 [15]: 32 µM

Clc1ccccc1/C=N/c1nc2ccccc2[nH]1
IC50 [14]: 63.4 µM | IC50 [15]: 31.7 µM

Clc1cccc(/C=N/c2nc3ccccc3[nH]2)c1
IC50 [14]: 52.4 µM | IC50 [15]: 75.5 µM

O=[N+]([O-])c1ccc(/C=N/c2nc3ccccc3[nH]2)cc1
IC50 [14]: 87.1 µM | IC50 [15]: 88.3 µM

FC(F)(F)c1ccc(/C=N/c2nc3ccccc3[nH]2)cc1
IC50 [15]: 200 µM

Clc1cccc(/C=N\c2nsc3ccccc23)c1
IC50 (WIL2-NS): 10 µM | IC50 (CCRF-SB): 4 µM | IC50 (MT4): 6 µM | IC50 (CCRF-CEM): 2 µM

COc1cccc(/C=N\c2nsc3ccccc23)c1O
IC50 (WIL2-NS): 10 µM | IC50 (CCRF-SB): 5 µM | IC50 (MT4): 5 µM | IC50 (CCRF-CEM): 2 µM

COc1cc(/C=N\c2nsc3ccccc23)ccc1O
IC50 (WIL2-NS): 10 µM | IC50 (CCRF-SB): 4 µM | IC50 (MT4): 5 µM | IC50 (CCRF-CEM): 2.5 µM

Cc1ccc2snc(/N=C\c3ccccc3O)c2c1
IC50 (WIL2-NS): 6 µM | IC50 (CCRF-SB): 3 µM | IC50 (MT4): 5 µM | IC50 (CCRF-CEM): 2 µM

Cc1ccc2snc(/N=C\c3ccccc3Cl)c2c1
IC50 (WIL2-NS): 5 µM | IC50 (CCRF-SB): 3 µM | IC50 (MT4): 3 µM | IC50 (CCRF-CEM): 1.5 µM

Cc1ccc2snc(/N=C\c3cccc(Cl)c3)c2c1
IC50 (WIL2-NS): 7 µM | IC50 (CCRF-SB): 4 µM | IC50 (MT4): 2 µM | IC50 (CCRF-CEM): 1.5 µM

COc1ccc(/C=N\c2nsc3ccc(C)cc23)cc1
IC50 (WIL2-NS): 6.5 µM | IC50 (CCRF-SB): 4 µM | IC50 (MT4): 4 µM | IC50 (CCRF-CEM): 1.5 µM

Oc1ccc(Br)cc1/C=N/Cc1cccs1
IC50 (HEp-2): 3.8 µM | Ratio IC50 (HCT-116 [16]): >2 | IC50 (HCT-116 [17]): 9.1 µM

O=[N+]([O-])c1ccc(/C=N/c2ccccc2)cc1
IC50 (HeLa [7]): 165 µM | IC50 (A549 [8]): 2 µM | IC50 (HeLa [9]): 123 µM | IC50 (A549 [10]): 1.6 µM

FC(F)(F)c1ccc(/C=N/c2ccccc2)cc1
IC50 (HeLa [7]): 1.9 µM | IC50 (A549 [8]): 161 µM | IC50 (HeLa [9]): 0.9 µM | IC50 (A549 [10]): 138 µM

O=C(NO)N/N=C/c1cc(Cl)cc(Cl)c1O
IC50 (KB [1]): 21.2 µM | IC50 (KB [2]): 22.2 µM

CSC(=S)N/N=C(\c1ccccc1)c1ccccn1
IC50 (K562): 35 µM

CC/N=C/c1c(O)c(O)c(C(C)C)c2cc(C)c(-c3c(C)cc4c(C(C)C)c(O)c(O)c(/C=N/CC)c4c3O)c(O)c12 (stereo in doubt; (+)-74)
IC50 (KB [4]; kb): 1.6 µM | IC50 (MCF7 [5]; mcf7): 1 µM | IC50 (MCF7 [6]; mcf7): 0.3 µM

CC/N=C/c1c(O)c(O)c(C(C)C)c2cc(C)c(-c3c(C)cc4c(C(C)C)c(O)c(O)c(/C=N/CC)c4c3O)c(O)c12 (stereo in doubt; (+/-)-74)
IC50 (KB [4]; kb): 1 µM | IC50 (MCF7 [5]; mcf7): 5 µM | IC50 (MCF7 [6]; mcf7): 0.4 µM

CC/N=C/c1c(O)c(O)c(C(C)C)c2cc(C)c(-c3c(C)cc4c(C(C)C)c(O)c(O)c(/C=N/CC)c4c3O)c(O)c12 (stereo in doubt; (-)-74)
IC50 (KB [4]; kb): 0.3 µM | IC50 (MCF7 [5]; mcf7): 0.2 µM | IC50 (MCF7 [6]; mcf7): 0.8 µM
